{
  "source": "ChEMBL document CHEMBL4270639",
  "about": "“Design of PPAR-γ agonist based on algal metabolites and the endogenous ligand 15-deoxy-Δ12, 14-prostaglandin J2” (Eur J Med Chem, 2018)",
  "note": "Active and inactive are the calls of the source. The rule behind the calls is not given here.",
  "data": [
    {"target": "T1, Peroxisome proliferator-activated receptor gamma (Homo sapiens) (UniProt P37231)", "T1 sequence (whole entry)": "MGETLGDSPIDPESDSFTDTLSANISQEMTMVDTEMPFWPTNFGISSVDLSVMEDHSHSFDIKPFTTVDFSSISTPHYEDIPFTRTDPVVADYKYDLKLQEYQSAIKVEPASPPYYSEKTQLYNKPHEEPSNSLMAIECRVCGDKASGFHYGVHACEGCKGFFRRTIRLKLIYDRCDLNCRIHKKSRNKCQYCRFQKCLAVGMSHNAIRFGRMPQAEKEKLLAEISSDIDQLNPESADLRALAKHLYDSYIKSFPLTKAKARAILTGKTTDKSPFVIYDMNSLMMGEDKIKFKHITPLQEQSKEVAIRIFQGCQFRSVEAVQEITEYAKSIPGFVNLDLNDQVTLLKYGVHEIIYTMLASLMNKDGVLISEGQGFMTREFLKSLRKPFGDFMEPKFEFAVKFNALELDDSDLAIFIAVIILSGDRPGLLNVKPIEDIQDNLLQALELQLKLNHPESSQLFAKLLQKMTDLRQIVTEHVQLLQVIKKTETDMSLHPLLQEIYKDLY", "experiment": "Transactivation of full length human FLAG-tagged PPARgamma1 LBD expressed in rat Ac2F cells at 5 to 10 uM after 6 hrs by luciferase reporter gene assay", "assay_type": "cell-based", "values": [
      {"smiles": "COC(=O)CC1CCC(=O)/C1=C\\CCc1ccccc1", "note": "(stereo not drawn)", "Activity": "inactive"},
      {"smiles": "CCCCCCCCC=C1C(=O)CCC1CC(=O)OC", "note": "(stereo not drawn)", "Activity": "inactive"},
      {"smiles": "COC(=O)CC1CCC(=O)C1=CC(OC)OC", "note": "(stereo not drawn)", "Activity": "Active"},
      {"smiles": "COC(=O)CC1CCC(=O)C1=CCc1ccccc1", "note": "(stereo not drawn)", "Activity": "Active"},
      {"smiles": "CCOC(=O)C[C@H]1CCC(=O)/C1=C/C1CCCCC1", "Activity": "Active"},
      {"smiles": "COC(=O)CC1CCC(=O)C1=CCC(C)C", "note": "(stereo not drawn)", "Activity": "Active"},
      {"smiles": "CCC=C1C(=O)CCC1CC(=O)OC", "note": "(stereo not drawn)", "Activity": "inactive"},
      {"smiles": "COC(=O)CC1CCC(=O)C1=CC(C)c1ccccc1", "note": "(stereo not drawn)", "Activity": "inactive"},
      {"smiles": "CCOC(=O)C[C@@H]1CCC(=O)/C1=C/C1CCCCC1", "Activity": "Active"},
      {"smiles": "COC(=O)CC1CCC(=O)C1=CC(c1ccccc1)c1ccccc1", "note": "(stereo not drawn)", "Activity": "inactive"},
      {"smiles": "CCCC=C1C(=O)CCC1CC(=O)OC", "note": "(stereo not drawn)", "Activity": "inactive"},
      {"smiles": "CCCCCCC=C1C(=O)CCC1CC(=O)OC", "note": "(stereo not drawn)", "Activity": "inactive"},
      {"smiles": "COC(=O)CC1CCC(=O)C1CC1CCCCC1", "note": "(stereo not drawn)", "Activity": "inactive"},
      {"smiles": "COC(=O)CC1CCC(=O)C1=CC1CCCCC1", "note": "(stereo not drawn)", "Activity": "Active"},
      {"smiles": "CCOC(=O)CC1CCC(=O)/C1=C/C1CCCCC1", "note": "(stereo not drawn)", "Activity": "Active"},
      {"smiles": "COC(=O)CC1CCC(=O)C1=CC1CCCC1", "note": "(stereo not drawn)", "Activity": "Active"},
      {"smiles": "COC(=O)CC1CCC(=O)/C1=C/CCc1ccccc1", "note": "(stereo not drawn)", "Activity": "inactive"},
      {"smiles": "COC(=O)CC1CCC(=O)/C1=C/C1CCCCC1", "note": "(stereo not drawn)", "Activity": "Active"},
      {"smiles": "CCCCC(C=C1C(=O)CCC1CC(=O)OC)CC", "note": "(stereo not drawn)", "Activity": "Active"},
      {"smiles": "CCCCCCCC=C1C(=O)CCC1CC(=O)OC", "note": "(stereo not drawn)", "Activity": "inactive"},
      {"smiles": "CCCCC=C1C(=O)CCC1CC(=O)OC", "note": "(stereo not drawn)", "Activity": "inactive"},
      {"smiles": "O=C(O)CC1CCC(=O)/C1=C/C1CCCCC1", "note": "(stereo not drawn)", "Activity": "Active"}
    ]},
    {"system": "not listed separately", "experiment": "Cytotoxicity against rat Ac2F cells assessed as decrease in cell viability after 24 hrs by WST assay", "assay_type": "cell-based", "values": [
      {"smiles": "COC(=O)CC1CCC(=O)C1=CC1CCCCC1", "note": "(stereo not drawn)", "Activity": "Non-Toxic"}
    ]}
  ]
}
